Source: paper PMC12296705, “In Vivo and Bioinformatics Evaluation of Nine Traditional Chinese Medicine Compounds Targeting Acetylcholinesterase and Butyrylcholinesterase Enzymes in Alzheimer’s Disease” (Iranian Journal of Pharmaceutical Research : IJPR, 2025)
Where two headings read alike, the source gives them in different places.

Experiments:
[1] = molecular target: T1, acetylcholinesterase (AChE) (Homo sapiens, UniProt P22303); assay: biochemical; conditions: for IC50: mean ± SD, n = 3, each in triplicate
T1 construct: purchased bioassay systems, USA IACE-100
T1 sequence (P22303 32-614): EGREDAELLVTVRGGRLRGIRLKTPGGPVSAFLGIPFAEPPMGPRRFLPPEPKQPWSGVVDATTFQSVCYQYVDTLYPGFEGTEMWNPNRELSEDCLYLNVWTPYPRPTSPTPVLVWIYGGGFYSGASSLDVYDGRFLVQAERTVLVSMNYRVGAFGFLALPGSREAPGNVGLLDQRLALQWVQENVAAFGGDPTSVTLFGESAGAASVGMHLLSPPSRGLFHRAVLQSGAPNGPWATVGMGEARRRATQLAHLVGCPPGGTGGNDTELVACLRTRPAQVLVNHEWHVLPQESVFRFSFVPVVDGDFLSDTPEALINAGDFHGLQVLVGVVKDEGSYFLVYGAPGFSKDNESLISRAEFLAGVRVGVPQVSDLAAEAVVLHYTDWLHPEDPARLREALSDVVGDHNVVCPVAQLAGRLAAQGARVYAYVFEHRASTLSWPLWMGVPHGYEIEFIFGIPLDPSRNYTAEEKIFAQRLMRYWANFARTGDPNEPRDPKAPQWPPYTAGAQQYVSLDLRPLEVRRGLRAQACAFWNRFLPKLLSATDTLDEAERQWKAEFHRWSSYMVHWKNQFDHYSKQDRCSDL
Description: (§1) The in vitro AChE and BuChE inhibitory effects and selectivity of nine TCM compounds were evaluated using the QuantiChrom^TM AChE inhibitor screening kit (IACE-100, bioassay systems, USA) for AChE inhibition and the BuChE activity kit (catalog # MBS846801, MyBiosource, CA, USA) for BuChE inhibition. […] The QuantiChrom^TM kit was used to assess the activity of AChE and BuChE by recording enzymatic activity at different concentrations of the test compounds and comparing it to activity without inhibitors, followed by plotting dose-response curves. The experimental data were fitted by nonlinear regression analysis to yield IC50 values. The selectivity of the compounds for AChE relative to BuChE was determined by calculating the Selectivity Index (SI) using the formula BuChE IC50 values are divided by AChE IC50 values to obtain SI.

[2] = molecular target: T2, butyrylcholinesterase (BuChE) (Homo sapiens, UniProt P06276); assay: biochemical
T2 construct: purchased MyBiosource, CA, and USA MBS846801
T2 sequence (P06276 29-602): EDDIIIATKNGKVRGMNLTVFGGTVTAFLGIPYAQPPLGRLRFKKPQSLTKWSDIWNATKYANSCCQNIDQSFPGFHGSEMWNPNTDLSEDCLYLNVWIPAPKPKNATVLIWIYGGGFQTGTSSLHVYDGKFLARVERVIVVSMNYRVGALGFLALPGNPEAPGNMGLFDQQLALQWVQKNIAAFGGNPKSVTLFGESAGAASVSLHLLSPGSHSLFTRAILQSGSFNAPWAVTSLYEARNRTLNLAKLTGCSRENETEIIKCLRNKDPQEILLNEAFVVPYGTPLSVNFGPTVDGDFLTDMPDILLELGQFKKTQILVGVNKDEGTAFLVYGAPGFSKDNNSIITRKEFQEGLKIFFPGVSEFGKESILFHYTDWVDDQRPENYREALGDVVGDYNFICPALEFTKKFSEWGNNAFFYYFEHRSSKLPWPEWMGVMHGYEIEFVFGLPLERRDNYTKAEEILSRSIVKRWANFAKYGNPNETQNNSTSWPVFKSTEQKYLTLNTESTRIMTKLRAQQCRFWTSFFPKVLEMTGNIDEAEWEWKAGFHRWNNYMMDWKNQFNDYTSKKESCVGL
Description: as §1

[3] = molecular target: T3, butyrylcholinesterase (BuChE) (Rattus norvegicus, UniProt Q9JKC1); assay: BuChE levels in LA-AD rats; assay type: in vivo; conditions: 1 mg/kg IP for 15 days
T3 construct: The tissues were then homogenized, processed for biochemical analysis; from tissue; host or cells: brain of male Wistar rats (cerebellum, cerebral cortex, hippocampus homogenates)
T3 sequence (Q9JKC1 24-597): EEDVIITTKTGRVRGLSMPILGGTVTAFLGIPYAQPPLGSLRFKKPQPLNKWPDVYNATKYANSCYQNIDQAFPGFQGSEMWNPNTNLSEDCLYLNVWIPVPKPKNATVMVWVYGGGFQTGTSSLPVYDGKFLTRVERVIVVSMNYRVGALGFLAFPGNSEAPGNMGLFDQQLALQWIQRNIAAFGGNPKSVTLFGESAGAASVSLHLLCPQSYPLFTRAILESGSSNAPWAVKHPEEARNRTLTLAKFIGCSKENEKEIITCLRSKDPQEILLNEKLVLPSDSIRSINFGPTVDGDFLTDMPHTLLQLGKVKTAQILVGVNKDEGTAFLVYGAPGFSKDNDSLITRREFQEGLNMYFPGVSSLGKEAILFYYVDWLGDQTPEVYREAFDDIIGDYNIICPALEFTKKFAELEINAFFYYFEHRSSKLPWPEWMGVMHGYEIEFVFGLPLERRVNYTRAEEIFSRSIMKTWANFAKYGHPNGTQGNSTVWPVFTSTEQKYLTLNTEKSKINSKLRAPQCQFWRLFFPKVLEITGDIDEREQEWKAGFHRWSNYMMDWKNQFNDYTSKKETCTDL
Description: (§2) Fifty male Wistar rats (n = 50) were obtained from a certified animal facility, Shenzhen Bay Laboratory (SZBL) Laboratory Animal Platform, China. The rats were acclimatized to the laboratory environment for one week prior to the experiment. During this period, they were kept in standard polypropylene cages for rodents under controlled conditions, with a room temperature of 22°C, relative humidity of 50%, and a 12-hour light-dark cycle, with lights on from 06:00 to 18:00. The rats had ad libitum access to a standard rodent diet and filtered water to ensure optimal health and hydration. Routine monitoring of housing conditions was conducted to ensure compliance with ethical standards. To establish an AD model, the rats underwent intraperitoneal (IP) administration with lead acetate-induced AD (LA-AD, 50 mg/kg) for 15 days to mimic the neurodegenerative features of AD.
Following AD induction, the rats were randomly divided into five groups: (1) Group I (control): DMSO contained in drinking water at a 5% concentration, without neurotoxic effects, in normal rats; (2) group II (LA-AD): The LA-AD rats for 15 days; […]. […]
(§3) A 12-hour fasting period was imposed on the rats immediately after the final dose of treatment to minimize the effect of recent food intake on blood parameters. […] The toxicological effects of the treatment were assessed through analysis of blood lead concentrations. […]

[4] = test system: lead acetate-induced AD (LA-AD) rats; assay: Glutathione (GSH) content in brain tissue of LA-AD rats; assay type: in vivo, rat; conditions: 1 mg/kg IP for 15 days, compared to the LA-AD group
Description: Fifty male Wistar rats (n = 50) were obtained from a certified animal facility, Shenzhen Bay Laboratory (SZBL) Laboratory Animal Platform, China. The rats were acclimatized to the laboratory environment for one week prior to the experiment. During this period, they were kept in standard polypropylene cages for rodents under controlled conditions, with a room temperature of 22°C, relative humidity of 50%, and a 12-hour light-dark cycle, with lights on from 06:00 to 18:00. […] Routine monitoring of housing conditions was conducted to ensure compliance with ethical standards. To establish an AD model, the rats underwent intraperitoneal (IP) administration with lead acetate-induced AD (LA-AD, 50 mg/kg) for 15 days to mimic the neurodegenerative features of AD.
A 12-hour fasting period was imposed on the rats immediately after the final dose of treatment to minimize the effect of recent food intake on blood parameters. […] Following 28 days of exposure, the rats were euthanized by cervical decapitation, and their brains were removed to minimize tissue damage. The brains were dissected into specific regions, including the cerebellum and cerebral cortex, for deeper analysis. […]
Glutathione (GSH) levels in cerebral tissue were quantified by extracting proteins from the homogenate. […]

[5] = molecular target: T4, Acetylcholinesterase (AChE) (Rattus norvegicus, UniProt P37136); assay: AChE levels in LA-AD rats; assay type: in vivo; conditions: 1 mg/kg IP for 15 days
T4 construct: The tissues were then homogenized, processed for biochemical analysis; from tissue; host or cells: brain of male Wistar rats (cerebellum, cerebral cortex, hippocampus homogenates)
T4 sequence (P37136 32-614): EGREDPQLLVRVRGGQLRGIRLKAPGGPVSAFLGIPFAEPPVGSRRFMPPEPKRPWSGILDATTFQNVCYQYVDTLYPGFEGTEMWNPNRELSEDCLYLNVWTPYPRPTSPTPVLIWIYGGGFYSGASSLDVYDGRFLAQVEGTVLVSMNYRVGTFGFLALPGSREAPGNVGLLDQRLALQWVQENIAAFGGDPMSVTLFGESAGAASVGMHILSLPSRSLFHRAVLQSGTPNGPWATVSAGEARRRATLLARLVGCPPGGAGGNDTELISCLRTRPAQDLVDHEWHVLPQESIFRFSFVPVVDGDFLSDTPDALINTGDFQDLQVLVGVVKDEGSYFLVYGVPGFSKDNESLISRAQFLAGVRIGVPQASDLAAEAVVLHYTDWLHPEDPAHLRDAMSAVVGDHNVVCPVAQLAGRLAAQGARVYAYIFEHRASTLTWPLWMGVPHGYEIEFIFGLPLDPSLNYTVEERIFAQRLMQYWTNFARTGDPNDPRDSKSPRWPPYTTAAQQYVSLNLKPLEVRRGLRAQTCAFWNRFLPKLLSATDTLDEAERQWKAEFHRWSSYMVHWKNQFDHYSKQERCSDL
Description: as §2
Following AD induction, the rats were randomly divided into five groups: (1) Group I (control): DMSO contained in drinking water at a 5% concentration, without neurotoxic effects, in normal rats; (2) group II (LA-AD): The LA-AD rats for 15 days; […]. […]. […]
as §3

[6] = test system: lead acetate-induced AD (LA-AD) rats; assay: Lipid peroxidation (MDA) in brain tissue of LA-AD rats; assay type: in vivo, rat; conditions: 1 mg/kg IP for 15 days, compared to the LA-AD group
Description: The rats were acclimatized to the laboratory environment for one week prior to the experiment. During this period, they were kept in standard polypropylene cages for rodents under controlled conditions, with a room temperature of 22°C, relative humidity of 50%, and a 12-hour light-dark cycle, with lights on from 06:00 to 18:00. […] Routine monitoring of housing conditions was conducted to ensure compliance with ethical standards. To establish an AD model, the rats underwent intraperitoneal (IP) administration with lead acetate-induced AD (LA-AD, 50 mg/kg) for 15 days to mimic the neurodegenerative features of AD.
Following 28 days of exposure, the rats were euthanized by cervical decapitation, and their brains were removed to minimize tissue damage. The brains were dissected into specific regions, including the cerebellum and cerebral cortex, for deeper analysis. The cerebellum, cerebral cortex, and hippocampus were isolated in sodium chloride solution and washed with ice-cold solution. The tissues were then homogenized, processed for biochemical analysis, and submerged in ice-cold 0.1 M phosphate buffer. […]
The reaction mixtures were then transferred into centrifuge tubes and centrifuged at 3800 × g for 25 minutes. […] After cooling, the absorbance of the samples was measured at 530 nm using a spectrophotometer (BIOBASE BK-UV1800PC, China).

[7] = BuChE IC50 divided by AChE IC50
[8] = mean ± SD, n = 3, each in triplicate, read-out: IC50 BuChE

| Compound | IC50 [1] [µM] | IC50 [2, 8] [µM] | IC50 [2] [µM] | further results |
| --- | --- | --- | --- | --- |
| CC1(C)C=Cc2c(cc3occ(-c4ccc(O)cc4)c(=O)c3c2O)O1 [Alpinumisoflavone] | 0.0903 ± 0.00413 | 0.0292 ± 0.0014 |  | BuChE/AChE Selectivity [1, 7]: 0.32 |
| C=C1CCC[C@]2(C)C[C@]3(O)OC(=O)C(C)=C3C[C@@H]12 [Atractylenolide III] | 0.0831 ± 0.00243 |  | 0.0313 ± 0.00262 | BuChE/AChE Selectivity [1]: 0.38 |
| Cc1cc(=O)cc2c3c1CC1C4OC(=O)C(CC2)(C(C)C4O)C31 (stereo not shown) [Hainanolidol] | 0.0443 | 0.0123 |  | BuChE activity [3]: significantly decreased; Glutathione (GSH) levels [4]: significantly increased; AChE activity [5]: significantly decreased; Malondialdehyde (MDA) levels [6]: significantly reduced |
| COC(=O)C1=CO[C@@H](O[C@@H]2O[C@H](CO)[C@@H](O)[C@H](O)[C@H]2O)[C@@H]2[C@H](C)O[C@@H](O)C[C@H]12 [Morroniside] | 0.0416 ± 0.00202 | 0.0182 ± 0.00212 |  |  |
| COc1cc2c3c(c1O)-c1c(ccc(OC)c1OC)C[C@@H]3NCC2 [Norcorydine] | 0.0872 ± 0.00412 |  | 0.102 ± 0.00313 |  |
| O=c1cc(-c2ccccc2)oc2c(O)c(O)cc(O)c12 [Norwogonin] | 0.0336 | 0.0152 |  | BuChE activity [3]: significantly decreased; Glutathione (GSH) levels [4]: significantly increased; AChE activity [5]: significantly decreased; Malondialdehyde (MDA) levels [6]: significantly reduced |
| COc1cc2c(c(OC)c1OC)-c1c(cc3c(c1OC)OCO3)CC(C)C(C)C2 (stereo not shown) [Schisandrin B] | 0.0904 ± 0.00441 |  | 0.0823 ± 0.00121 |  |
| Asiaticoside |  |  |  | BuChE/AChE Selectivity [1, 7]: 1.17 |
